What all share (experiment): relative viability (nuclei count vs DMSO), 5 days (fraction); higher = more cells survive
Compound in the test “Vorinostat + OSI-027”: O=C(CCCCCCC(=O)Nc1ccccc1)NO [Vorinostat] + COc1cccc2cc(-c3nc([C@H]4CC[C@H](C(=O)O)CC4)n4ncnc(N)c34)[nH]c12 [OSI-027] (partner 0.5 µM)
Summed up: (§1)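 Relative viability divides the nuclei count in treated wells by that in vehicle wells. Lung cancer cell lines were seeded in 1536-well plates, dosed by pin tool the next day, and fixed and stained after 5 days in one step with final 0.05% Triton X-100, 1% formaldehyde and 1 ug/ml Hoechst. Dosing was a single drug or a fixed anchor-drug dose plus five library-drug doses (not always all listed) in √10 steps, and values are medians of duplicate plates imaged at 4×.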

Compound in the test “Vorinostat + AZD7762”: O=C(CCCCCCC(=O)Nc1ccccc1)NO [Vorinostat] + NC(=O)Nc1cc(-c2cccc(F)c2)sc1C(=O)N[C@H]1CCCNC1 [AZD7762] (partner 0.2 µM)
Summed up:
as §1

Compound in the test “Vorinostat + Alpelisib”: O=C(CCCCCCC(=O)Nc1ccccc1)NO [Vorinostat] + Cc1nc(NC(=O)N2CCC[C@H]2C(N)=O)sc1-c1ccnc(C(C)(C)C(F)(F)F)c1 [Alpelisib] (partner 2 µM)
Summed up:
as §1

Compound in the test “Vorinostat + Dasatinib”: O=C(CCCCCCC(=O)Nc1ccccc1)NO [Vorinostat] + Cc1nc(Nc2ncc(C(=O)Nc3c(C)cccc3Cl)s2)cc(N2CCN(CCO)CC2)n1 [Dasatinib] (partner 0.075 µM)
Summed up: as §1

Compound in the test “Vorinostat + Crizotinib”: O=C(CCCCCCC(=O)Nc1ccccc1)NO [Vorinostat] + C[C@@H](Oc1cc(-c2cnn(C3CCNCC3)c2)cnc1N)c1c(Cl)ccc(F)c1Cl [Crizotinib] (partner 1 µM)
Put shortly: as §1

Among the data in the supplement of paper PMC10307832 are relative viability values, retold here.

A-427: the relative viability in the test with Vorinostat + OSI-027 (first compound 0.253 µM) worked out at 0.535; with Vorinostat + OSI-027 (first compound 0.8 µM), 0.281; with Vorinostat + OSI-027 (first compound 2.53 µM), 0.226; with Vorinostat + OSI-027 (first compound 8 µM), 0.105; with Vorinostat + AZD7762 (first compound 0.253 µM), 0.67; in the test with Vorinostat + AZD7762 (first compound 0.8 µM) it was 0.459. Also, the relative viability in the test with Vorinostat + AZD7762 (first compound 2.53 µM) was found to be 0.239; with Vorinostat + AZD7762 (first compound 8 µM), 0.156; with Vorinostat + Alpelisib (first compound 0.253 µM) it was 1.1; in the test with Vorinostat + Alpelisib (first compound 0.8 µM), 1.1; with Vorinostat + Alpelisib (first compound 2.53 µM), 0.889; with Vorinostat + Alpelisib (first compound 8 µM), 0.146. For the same cell line, the relative viability with Vorinostat + Dasatinib (first compound 0.253 µM) is 0.823; with Vorinostat + Dasatinib (first compound 0.8 µM), 0.565; in the test with Vorinostat + Dasatinib (first compound 2.53 µM), 0.332; in the test with Vorinostat + Dasatinib (first compound 8 µM) it was 0.133; with Vorinostat + Crizotinib (first compound 0.253 µM), 0.954; with Vorinostat + Crizotinib (first compound 0.8 µM) it was 0.847. Further, the relative viability in the test with Vorinostat + Crizotinib (first compound 2.53 µM) was 0.274; in the test with Vorinostat + Crizotinib (first compound 8 µM), 0.096.

For NCI-H647, the relative viability with Vorinostat + OSI-027 (first compound 0.253 µM) was 0.777; in the test with Vorinostat + OSI-027 (first compound 0.8 µM) it was 0.526; with Vorinostat + OSI-027 (first compound 2.53 µM) it was 0.19; with Vorinostat + OSI-027 (first compound 8 µM) it was 0.0491; in the test with Vorinostat + AZD7762 (first compound 0.253 µM) it was 0.406; with Vorinostat + AZD7762 (first compound 0.8 µM), 0.333. Also, the relative viability with Vorinostat + AZD7762 (first compound 2.53 µM) turned out to be 0.0641; with Vorinostat + AZD7762 (first compound 8 µM), 0.0356; in the test with Vorinostat + Alpelisib (first compound 0.253 µM), 1.51; in the test with Vorinostat + Alpelisib (first compound 0.8 µM) it was 0.966; in the test with Vorinostat + Alpelisib (first compound 2.53 µM), 0.254; with Vorinostat + Alpelisib (first compound 8 µM), 0.0332. The relative viability turned out to be 0.18 with Vorinostat + Dasatinib (first compound 0.253 µM); 0.233 with Vorinostat + Dasatinib (first compound 0.8 µM); 0.0551 with Vorinostat + Dasatinib (first compound 2.53 µM); 0.0337 in the test with Vorinostat + Dasatinib (first compound 8 µM); 1.15 in the test with Vorinostat + Crizotinib (first compound 0.253 µM); 0.591 with Vorinostat + Crizotinib (first compound 0.8 µM). In addition, the relative viability is 0.178 with Vorinostat + Crizotinib (first compound 2.53 µM) and 0.0502 with Vorinostat + Crizotinib (first compound 8 µM).

Consider EKVX, for which the relative viability in the test with Vorinostat + OSI-027 (first compound 0.253 µM) was 0.623; in the test with Vorinostat + OSI-027 (first compound 0.8 µM), 0.659; with Vorinostat + OSI-027 (first compound 2.53 µM), 0.39; in the test with Vorinostat + OSI-027 (first compound 8 µM), 0.132; with Vorinostat + AZD7762 (first compound 0.253 µM) it was 0.838; in the test with Vorinostat + AZD7762 (first compound 0.8 µM) it was 0.489. Further, the relative viability with Vorinostat + AZD7762 (first compound 2.53 µM) is 0.199; in the test with Vorinostat + AZD7762 (first compound 8 µM), 0.136; with Vorinostat + Alpelisib (first compound 0.253 µM) it was 0.992; in the test with Vorinostat + Alpelisib (first compound 0.8 µM) it was 0.951; with Vorinostat + Alpelisib (first compound 2.53 µM), 0.4; with Vorinostat + Alpelisib (first compound 8 µM), 0.14. Besides, the relative viability worked out at 0.535 with Vorinostat + Dasatinib (first compound 0.253 µM); 0.528 in the test with Vorinostat + Dasatinib (first compound 0.8 µM); 0.236 with Vorinostat + Dasatinib (first compound 2.53 µM); 0.179 in the test with Vorinostat + Dasatinib (first compound 8 µM); 0.958 with Vorinostat + Crizotinib (first compound 0.253 µM); 0.891 with Vorinostat + Crizotinib (first compound 0.8 µM). Moreover, the relative viability in the test with Vorinostat + Crizotinib (first compound 2.53 µM) was 0.428; with Vorinostat + Crizotinib (first compound 8 µM), 0.152.

LCLC-97TM1: the relative viability with Vorinostat + OSI-027 (first compound 0.253 µM) came to 0.444; in the test with Vorinostat + OSI-027 (first compound 0.8 µM) it was 0.582; with Vorinostat + OSI-027 (first compound 2.53 µM), 0.249; with Vorinostat + OSI-027 (first compound 8 µM) it was 0.112; with Vorinostat + AZD7762 (first compound 0.253 µM), 0.129; with Vorinostat + AZD7762 (first compound 0.8 µM), 0.256. Besides, the relative viability in the test with Vorinostat + AZD7762 (first compound 2.53 µM) stood at 0.205; with Vorinostat + AZD7762 (first compound 8 µM), 0.0628; with Vorinostat + Alpelisib (first compound 0.8 µM), 0.26; in the test with Vorinostat + Alpelisib (first compound 2.53 µM), 0.158; with Vorinostat + Alpelisib (first compound 8 µM) it was 0.114; in the test with Vorinostat + Dasatinib (first compound 0.253 µM) it was 0.914. For the same cell line, the relative viability is 0.68 with Vorinostat + Dasatinib (first compound 0.8 µM); 0.365 with Vorinostat + Dasatinib (first compound 2.53 µM); 0.226 in the test with Vorinostat + Dasatinib (first compound 8 µM); 0.328 in the test with Vorinostat + Crizotinib (first compound 0.8 µM); 0.157 with Vorinostat + Crizotinib (first compound 2.53 µM); 0.11 with Vorinostat + Crizotinib (first compound 8 µM).

With NCI-H2405, the relative viability came out at 0.695 with Vorinostat + OSI-027 (first compound 0.253 µM); 0.778 with Vorinostat + OSI-027 (first compound 0.8 µM); 0.463 with Vorinostat + OSI-027 (first compound 2.53 µM); 0.103 with Vorinostat + OSI-027 (first compound 8 µM); 0.904 in the test with Vorinostat + AZD7762 (first compound 0.253 µM); 0.742 with Vorinostat + AZD7762 (first compound 0.8 µM). Besides, the relative viability with Vorinostat + AZD7762 (first compound 2.53 µM) is 0.262; in the test with Vorinostat + AZD7762 (first compound 8 µM), 0.11; with Vorinostat + Alpelisib (first compound 0.253 µM), 1.01; with Vorinostat + Alpelisib (first compound 0.8 µM) it was 0.835; with Vorinostat + Alpelisib (first compound 2.53 µM) it was 0.16; with Vorinostat + Alpelisib (first compound 8 µM), 0.0486. Also, the relative viability with Vorinostat + Dasatinib (first compound 0.253 µM) was found to be 0.237; in the test with Vorinostat + Dasatinib (first compound 0.8 µM), 0.17; with Vorinostat + Dasatinib (first compound 2.53 µM) it was 0.117; with Vorinostat + Dasatinib (first compound 8 µM), 0.0585; in the test with Vorinostat + Crizotinib (first compound 0.253 µM), 0.917; in the test with Vorinostat + Crizotinib (first compound 0.8 µM), 0.88. The relative viability with Vorinostat + Crizotinib (first compound 2.53 µM) was determined as 0.415; with Vorinostat + Crizotinib (first compound 8 µM), 0.0921.
